Where “and” joins values, the source holds several entries; their conditions need not be identical. Equal entries are not always repeated.
How the values were obtained:
[1] = biological target: Glycogen synthase kinase-3 alpha (Homo sapiens, UniProt P49840); assay: TR-FRET Assay
Procedure, shortened: (§1)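 Kinase activity, measured after a 30-minute compound preincubation, was stopped with EDTA and quantified by TR-FRET using a Tb-labelled pSer641 antibody paired with streptavidin-d2.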

[2] = biological target: Glycogen synthase kinase-3 beta (Homo sapiens, UniProt P49841); assay: TR-FRET Assay
Procedure, shortened: as §1

Glycogen synthase kinase-3 alpha, sequence (P49840 whole entry): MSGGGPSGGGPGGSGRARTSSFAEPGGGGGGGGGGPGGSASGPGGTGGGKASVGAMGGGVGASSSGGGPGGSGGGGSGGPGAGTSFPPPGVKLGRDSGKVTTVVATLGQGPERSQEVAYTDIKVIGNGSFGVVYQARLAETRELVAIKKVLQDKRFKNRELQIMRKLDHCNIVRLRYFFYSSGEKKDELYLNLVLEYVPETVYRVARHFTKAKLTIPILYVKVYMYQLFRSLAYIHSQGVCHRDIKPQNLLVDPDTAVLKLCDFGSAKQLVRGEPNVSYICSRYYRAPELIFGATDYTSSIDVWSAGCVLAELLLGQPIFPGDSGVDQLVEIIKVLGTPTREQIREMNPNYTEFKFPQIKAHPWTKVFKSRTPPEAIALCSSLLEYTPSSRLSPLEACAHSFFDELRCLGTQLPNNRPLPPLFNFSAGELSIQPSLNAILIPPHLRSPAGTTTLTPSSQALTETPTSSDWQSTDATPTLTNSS
Glycogen synthase kinase-3 beta, sequence (P49841 whole entry): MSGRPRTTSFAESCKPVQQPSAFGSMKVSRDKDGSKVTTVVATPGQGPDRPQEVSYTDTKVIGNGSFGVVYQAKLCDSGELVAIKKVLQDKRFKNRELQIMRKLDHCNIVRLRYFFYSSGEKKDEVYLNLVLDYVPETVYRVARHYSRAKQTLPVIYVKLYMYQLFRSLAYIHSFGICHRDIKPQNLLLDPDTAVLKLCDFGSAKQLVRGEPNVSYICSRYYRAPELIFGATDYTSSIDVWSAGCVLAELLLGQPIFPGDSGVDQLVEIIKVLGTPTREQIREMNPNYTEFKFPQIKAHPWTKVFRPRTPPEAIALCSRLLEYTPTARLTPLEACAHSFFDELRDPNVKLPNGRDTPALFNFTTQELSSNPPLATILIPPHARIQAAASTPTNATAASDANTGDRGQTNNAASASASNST

| SMILES | IC50 [1] | IC50 [2] |
| --- | --- | --- |
| CC[C@@]1(c2cccc(-c3ccnc(C)c3)c2)C2=C(N=NC2)NC2=C1C[C@@H]1CC[C@H]2C1 [US20250313563, Compound 943920] | 1000 to 5000 nM | > 5000 nM |
| CC[C@]1(c2cccc(-c3cn(C)nc3C)c2)C2=C(CC(C)(C)NC2=O)NC2N=NC(C(F)(F)F)=C21 (stereo partly specified) [US20250313563, Compound 948309] | 1000 to 5000 nM | > 5000 nM |
| CC[C@]1(c2cccc(-c3ccnc(C)c3Cl)c2)C2=CN=NC2NC2=C1C(=O)NC(C)(C)C2 (stereo partly specified) [US20250313563, Compound 948369] | > 5000 nM | > 5000 nM |
| CC[C@@]1(c2cccc(-c3ccnc(OC)c3F)c2)C2=CN=NC2NC2=C1C(=O)NC(C)(C)C2 (stereo partly specified) [US20250313563, Compound 948531] | 100 to 1000 nM | > 5000 nM |
| CC1(C)CC(=O)C2=C(C1)NC1=C(CN=N1)C21CCC(C(F)(F)F)CC1 (stereo unspecified) [US20250313563, Compound 865193] | < 100 nM and 100 to 1000 nM | < 100 nM and 1000 to 5000 nM |
| CC[C@@]1(c2cccc(C(F)(F)F)c2)C2=C(CC(C)(C)CC2=O)NC2N=NC(Br)=C21 (stereo partly specified) [US20250313563, Compound 810464] | 1000 to 5000 nM | 1000 to 5000 nM |
| CC[C@@]1(c2cccc(C3=C(C)SN(C)C3)c2)C2=CN=NC2NC2=C1C(=O)NC1(CCC1)C2 (stereo partly specified) [US20250313563, Compound 950056] | 100 to 1000 nM | > 5000 nM |
| CC[C@]1(c2cccc(N(C)c3ncccn3)c2)C2=C(CC(C)(C)NC2=O)NC2N=NC(F)=C21 (stereo partly specified) [US20250313563, Compound 949647] | 100 to 1000 nM | > 5000 nM |
| CC[C@]1(c2cccc(Br)c2)C2=CN=NC2NC2=C1C(=O)C[C@@H](C)C2 (stereo partly specified) [US20250313563, Compound 810484] | > 5000 nM | > 5000 nM |
| CCC1(c2cccc(CN3CCCCC3)c2)C2=CN=NC2NC2=C1C(=O)CC(C)(C)C2 (stereo unspecified) [US20250313563, Compound 819560] | 1000 to 5000 nM | > 5000 nM |
| CC[C@@]1(c2ccccc2)C2=CN=NC2NC2=C1C(=O)[C@@H](F)C(C)(C)C2 (stereo partly specified) [US20250313563, Compound 957403] | 100 to 1000 nM | 1000 to 5000 nM |
| CC1(C)CC(=O)C2=C(C1)NC1=C(CN=N1)[C@]21CCO[C@H](C(C)(C)C)C1 [US20250313563, Compound 912112] | 100 to 1000 nM | 100 to 1000 nM |
| CC[C@@]1(c2cccc(-c3ccnn3C)c2)C2=CN=NC2NC2=C1C(=O)N[C@]1(CCCOC1)C2 (stereo partly specified) [US20250313563, Compound 948529] | < 100 nM and 100 to 1000 nM | 100 to 1000 nM and 1000 to 5000 nM |
| CC[C@]1(c2cccc(N(C)c3ncccn3)c2)C2=CN=NC2NC2=C1C(=O)NC(C)(C)C2 (stereo partly specified) [US20250313563, Compound 947825] | 100 to 1000 nM | > 5000 nM |
| CCC1(c2cccc(-c3ccnc(C(F)(F)F)c3)c2)C2=CN=NC2NC2=C1C(=O)CC(C)(C)C2 (stereo unspecified) [US20250313563, Compound 913350] | 100 to 1000 nM and < 100 nM | < 100 nM and 100 to 1000 nM |
| CC[C@@]1(c2cccc(N(C)C(C)=O)c2)C2=CN=NC2NC2=C1C(=O)CC(C)(C)C2 (stereo partly specified) [US20250313563, Compound 810359] | > 5000 nM | > 5000 nM |
| CC(=O)N1CC[C@]2(C1)C1=C(N=NC1)NC1=C2C(=O)CC(C)(C)C1 [US20250313563, Compound 889583] | 1000 to 5000 nM | > 5000 nM |

| SMILES | IC50 [1] | IC50 [2] |
| --- | --- | --- |
| CC[C@]1(c2cccc(-c3cncn3C)c2)C2=C(CC(C)(C)NC2=O)NC2N=NC(C(F)(F)F)=C21 (stereo partly specified) [US20250313563, Compound 949003] | 100 to 1000 nM | 100 to 1000 nM |
| CC[C@]1(c2cccc(N(C)C(=O)c3ccn(C)n3)c2)C2=CN=NC2NC2=C1C(=O)CC(C)(C)C2 (stereo partly specified) [US20250313563, Compound 929455] | > 5000 nM | > 5000 nM |
| CC[C@@]1(c2cccc(-c3c(F)cncc3F)c2)C2=CN=NC2NC2=C1C(=O)NC(C)(C)C2 (stereo partly specified) [US20250313563, Compound 948525] | < 100 nM and 100 to 1000 nM | < 100 nM and 1000 to 5000 nM |
| CC1(C)CC2=C(C(=O)N1)C1(CCN(S(=O)(=O)C3CCCC3)CC1)C1=C(N=NC1)N2 [US20250313563, Compound 943960] | < 100 nM and 100 to 1000 nM | < 100 nM and 100 to 1000 nM |
| CC[C@@]1(c2cccc(C(F)(F)F)c2)C2=CN=NC2NC2=C1C(=O)N(C(C)(C)C)CC2 (stereo partly specified) [US20250313563, Compound 945634] | 1000 to 5000 nM | > 5000 nM |
| CC[C@]1(c2cccc(-c3ccnc(C)c3C)c2)C2=C(CC(C)(C)CC2=O)NC2N=NC(C(F)(F)F)=C21 (stereo partly specified) [US20250313563, Compound 947328] | 100 to 1000 nM | 100 to 1000 nM |
| CC1(C)CC(=O)C2=C(C1)NC1=C(CN=N1)[C@@]21CCC[C@@H](C#N)C1 [US20250313563, Compound 945906] | 100 to 1000 nM | 100 to 1000 nM |
| CC1(C)CC(=O)C2=C(C1)NC1=C(CN=N1)[C@@]21CCO[C@H](C(F)(F)F)C1 [US20250313563, Compound 884022] | 100 to 1000 nM | 100 to 1000 nM |
| O=C1C[C@@]2(CCOC2)CC2=C1C1(CCOCC1)C1=C(N=NC1)N2 [US20250313563, Compound 901475] | 100 to 1000 nM | 100 to 1000 nM |
| CC[C@@]1(c2cccc(N(C)c3ncccn3)c2)C2=C(CC(C)(C)NC2=O)NC2N=NC(Cl)=C21 (stereo partly specified) [US20250313563, Compound 951618] | 100 to 1000 nM | 1000 to 5000 nM |
| CC[C@]1(c2ccccc2)C2=CN=NC2NC2=C1C(=O)C[C@H](c1ccccc1)C2 (stereo partly specified) [US20250313563, Compound 791265] | 1000 to 5000 nM | > 5000 nM |
| CC[C@]1(c2cccc(-c3ccnc(C)c3)c2)C2=CN=NC2NC2=C1C(=O)NC(C)(C)C2 (stereo partly specified) [US20250313563, Compound 927325] | 100 to 1000 nM | 100 to 1000 nM |
| CCC1(c2cccc(-c3ccncc3F)c2)C2=C(CC(C)(C)NC2=O)NC2N=NC(Cl)=C21 (stereo unspecified) [US20250313563, Compound 949324] | < 100 nM and 100 to 1000 nM | < 100 nM and 1000 to 5000 nM |
| CC(C)(C)CC1=C2C(N=N1)NC1=C(C(=O)CC(C)(C)C1)[C@]21CCc2ccc(F)cc21 (stereo partly specified) [US20250313563, Compound 789504] | 1000 to 5000 nM | 100 to 1000 nM |
| CC[C@]1(c2cccc(C(F)(F)F)c2)C2=C(N=NC2)NC2=C1C(=O)N(C)C2 [US20250313563, Compound 945367] | 100 to 1000 nM | 1000 to 5000 nM |
| CCC1(c2cccc(N(c3cccnc3)C3CC3)c2)C2=CN=NC2NC2=C1C(=O)CC(C)(C)C2 (stereo unspecified) [US20250313563, Compound 913274] | < 100 nM | < 100 nM |
| CC[C@]1(c2ccccc2)C2=CN=NC2NC2=C1C(=O)[C@@H](F)C(C)(C)C2 (stereo partly specified) [US20250313563, Compound 826769] | > 5000 nM | > 5000 nM |

Now from value to compound:

| IC50 [1] | IC50 [2] | SMILES |
| --- | --- | --- |
| < 100 nM | 100 to 1000 nM | CC[C@]1(c2ccccc2)C2=CN=NC2NC2=C1C(=O)[C@H](F)C(C)(C)C2 (stereo partly specified) [US20250313563, Compound 826768] |
| < 100 nM | < 100 nM | CCC1(c2cccc(N(C)c3ncccn3)c2)C2=C(CC(C)(C)NC2=O)NC2N=NC(C(F)(F)F)=C21 (stereo unspecified) [US20250313563, Compound 948176] |
| < 100 nM | < 100 nM and 100 to 1000 nM | CC[C@]1(c2cccc(C(F)(F)F)c2)C2=C(NC3=NN=CC31)c1ccccc1C2=O (stereo partly specified) [US20250313563, Compound 949743] |
| < 100 nM | < 100 nM | CCC1(c2cccc(C(F)F)c2)C2=CN=NC2NC2=C1C(=O)CC(C)(C)C2 (stereo unspecified) [US20250313563, Compound 819564] |
| < 100 nM | < 100 nM | CC1(C)CC(=O)C2=C(C1)NC1=C(CN=N1)C21COC2(CN(C(=O)C3(C)CCCC3)C2)C1 (stereo unspecified) [US20250313563, Compound 947307] |
| < 100 nM | < 100 nM and 100 to 1000 nM | CC[C@]1(c2cccc(S(=O)(=O)C3CC3)c2)C2=C(CC(C)(C)NC2=O)NC2=C1C(C(F)(F)F)N=N2 (stereo partly specified) [US20250313563, Compound 948771] |
| < 100 nM | < 100 nM | CCC1(c2cccc(-c3cn(C)nc3C)c2)C2=CN=NC2NC2=C1C(=O)CC(C)(C)C2 (stereo unspecified) [US20250313563, Compound 926840] |
| < 100 nM | < 100 nM | CCC1(c2cccc(-c3cn(C)nc3C)c2)C2=C(CC(C)(C)NC2=O)NC2N=NC(C)=C21 (stereo unspecified) [US20250313563, Compound 945460] |
| < 100 nM | < 100 nM | CC[C@]1(c2cccc(S(C)(=O)=O)c2)C2=C(CC(C)(C)NC2=O)NC2N=NC(C)=C21 (stereo partly specified) [US20250313563, Compound 947811] |
| < 100 nM | 100 to 1000 nM | CCC1(c2cccc(-c3ccnc4c3CCC4)c2)C2=C(CC(C)(C)NC2=O)NC2N=NC(C)=C21 (stereo unspecified) [US20250313563, Compound 947675] |
| < 100 nM | 100 to 1000 nM | CC[C@@]1(c2cccc(-c3ccnc(C)c3)c2)C2=CN=NC2NC2=C1C(=O)NC1(CCC1)C2 (stereo partly specified) [US20250313563, Compound 949520] |
| < 100 nM | 100 to 1000 nM | CCC1(c2cccc(N(C)c3cccc(C)n3)c2)C2=CN=NC2NC2=C1C(=O)CC(C)(C)C2 (stereo unspecified) [US20250313563, Compound 913255] |
| < 100 nM | 1000 to 5000 nM | CCC1(c2cccc(C(F)(F)F)c2)C2=CN=NC2NC2=C1C(=O)N(c1cnn(C)c1C)CC2 (stereo unspecified) [US20250313563, Compound 950612] |
| < 100 nM | < 100 nM | CCC1(c2cccc(N3CCOCC3)c2)C2=C(CC(C)(C)CC2=O)NC2N=NC(C)=C21 (stereo unspecified) [US20250313563, Compound 874312] |
| < 100 nM | < 100 nM | CC1(C)CC(=O)C2=C(C1)NC1=C(CN=N1)[C@@]21COC2(CN(C(=O)Cc3ccccc3)C2)C1 [US20250313563, Compound 948037] |
| < 100 nM | < 100 nM | CCC1(c2cccc(C3CC3)c2)C2=CN=NC2NC2=C1C(=O)CC(C)(C)C2 (stereo unspecified) [US20250313563, Compound 801316] |
| < 100 nM | < 100 nM and 100 to 1000 nM | CC1(C)CC(=O)C2=C(C1)NC1=C(CN=N1)C21CCN(S(=O)(=O)c2cccc(Cl)c2F)CC1 [US20250313563, Compound 948118] |
| < 100 nM | < 100 nM | Cn1nccc1S(=O)(=O)N1CCC2(CC1)C1=C(N=NC1)NC1=C2C(=O)CC(C)(C)C1 [US20250313563, Compound 932649] |
| < 100 nM | < 100 nM | CCC1(c2cccc(-c3c(C)nn(C)c3C)c2)C2=CN=NC2NC2=C1C(=O)NC(C)(C)C2 (stereo unspecified) [US20250313563, Compound 945462] |

Reference: BindingDB's records for patent US20250313563 (The Broad Institute, 2025)
